Columns and labels:
Format in all cases: cell-based
Conditions in all cases: mda-mb-231, 24 h
[1] = system: MDA-MB-231; assay: Toxicity in human MDA-MB-231 cells assessed as reduction in cell viability at >1 uM incubated for 24 hrs by MTS assay
[2] = system: MDA-MB-231; assay: Toxicity in human MDA-MB-231 cells assessed as reduction in cell viability at <1 uM incubated for 24 hrs by MTS assay
[3] = system: MDA-MB-231; assay: Toxicity in human MDA-MB-231 cells assessed as reduction in cell viability at 10 uM incubated for 24 hrs by MTS assay

Row | SMILES | Activity [1] | Activity [2] | Activity [3]
1 | CN1\C(=C/C=C/C=C/C2N(CCCCCC(=O)NCCCCCC(=O)N3Cc4ccccc4C[C@H]3C(=O)NCC(=O)N3C4CCCCC4C[C@H]3C(=O)NC(CCCNC(=N)N)P(=O)(Oc3ccccc3)Oc3ccccc3)c3ccccc3C2(C)C)C(C)(C)c2ccccc21 (stereo partly drawn) | Toxic | Non-Toxic | 
2 | COC(=O)CCC(=O)N1Cc2ccccc2C[C@H]1C(=O)NCC(=O)N1C2CCCCC2C[C@H]1C(=O)NC(CCCNC(=N)N)P(=O)(Oc1ccccc1)Oc1ccccc1 (stereo partly drawn) |  |  | Non-Toxic
